From patent US6555821B1, “Method for analysis of expired gas” (priority 1999, dated 2003)
Several values for one entry are separate records, joined by “and”; a condition that tells them apart may be missing. Identical values can stand only once. Blank lines part the entries; values can stand above or below the compound they belong to.

What was measured:
[1] = Bubbling tests: alcohol concentration in gas phase over alcohol-water solution, measured by low resolution FT-IR; type: physicochemical; settings: for Concentration of ethanol in gas phase / Concentration of methanol in gas phase: 21.0 ± 1.0° C., 1 atm, mean ± SD of 10 spectra
[2] = 25° C., 1 atm; Hine and Mookerjee 1975, Davidovits et al. 1995; cited from earlier work
[3] = Bubbling tests: alcohol concentration in gas phase over alcohol-water solution, measured by low resolution FT-IR; type: physicochemical; settings: for Concentration of methanol in gas phase: 21.0 ± 1.0° C., 1 atm, mean ± SD of 10 spectra
Experimental: Vaporous ethanol and methanol mixtures in water were made by bubbling nitrogen gas through a corresponding liquid mixture. The purpose of measuring mixtures of ethanol and methanol was to test the applicability of the instrument for determining more than one alcohol in a gas mixture containing a large amount of water vapor like human exhaled breath. Particularly, the measurements were performed with a large ethanol:methanol ratio in order to investigate whether the instrument is able to determine a low concentration of methanol in the presence of a large amount of ethanol.

Concentration of ethanol in gas phase ([1]; 3.17 W-% ethanol in water with methanol in liquid 0.102 w-%): 295 ± 2 ppm
Concentration of ethanol in gas phase ([1]; 3.17 W-% ethanol in water with methanol in liquid 0.159 w-%): 314 ± 4 ppm
Concentration of ethanol in gas phase ([1]; 3.17 W-% ethanol in water with methanol in liquid 0.222 w-%): 298 ± 3 ppm
Concentration of ethanol in gas phase ([1]; 3.17 W-% ethanol in water with methanol in liquid 0.317 w-%): 304 ± 2 ppm
Concentration of ethanol in gas phase ([1]; 3.17 W-% ethanol in water with methanol in liquid 0.95 w-%): 296 ± 4 ppm
Concentration of ethanol in gas phase ([1]; 3.17 W-% ethanol in water with methanol in liquid 1.59 w-%): 303 ± 5 ppm
Concentration of ethanol in gas phase ([1]; 3.17 W-% ethanol in water with methanol in liquid 3.18 w-%): 300 ± 2 ppm
Concentration of ethanol in gas phase ([1]; 3.17 W-% ethanol in water with methanol in liquid 6.36 w-%): 293 ± 3 ppm
Concentration of ethanol in gas phase ([1]; 3.17 W-% ethanol in water with methanol in liquid 15.9 w-%): 289 ± 1 ppm
ethanol in the gas phase (FIG. 1 spectrum) ([1]; 3.17 w-‰ ethanol and 0.159 w-‰ methanol in liquid phase (water), 21±1° C.): 310 ppm
Concentration of ethanol in gas phase ([1]; ethanol in liquid 0.202 w-%, water): 19.2 ± 0.1 ppm
Concentration of ethanol in gas phase ([1]; ethanol in liquid 0.5 w-%, water): 45.7 ± 0.3 ppm
Concentration of ethanol in gas phase ([1]; ethanol in liquid 1 w-%, water): 94 ± 1 ppm
Concentration of ethanol in gas phase ([1]; ethanol in liquid 1.58 w-%, water): 148 ± 2 ppm
Concentration of ethanol in gas phase ([1]; ethanol in liquid 3.16 w-%, water): 305 ± 4 ppm
Concentration of ethanol in gas phase ([1]; ethanol in liquid 6.33 w-%, water): 587 ± 4 ppm
Concentration of ethanol in gas phase ([1]; ethanol in liquid 9.49 w-%, water): 907 ± 6 ppm
Concentration of ethanol in gas phase ([1]; ethanol in liquid 15.8 w-%, water): 1466 ± 11 ppm
Concentration of ethanol in gas phase ([1]; ethanol in liquid 31.6 w-%, water): 2907 ± 4 ppm
SMILES: CCO [ethanol]

SMILES: CO [methanol]
water-air partition coefficient (literature Henry's law constants) [2]: 5260 and 5334
methanol in the gas phase (FIG. 1 spectrum) ([3]; 0.159 w-‰ methanol and 3.17 w-‰ ethanol in liquid phase (water), 21±1° C.): 22.4 ppm
Concentration of methanol in gas phase ([3]; methanol in liquid 0.222 w-% in mixture of water and 3.17 W-% ethanol): 30.2 ± 0.5 ppm
Concentration of methanol in gas phase ([3]; methanol in liquid 0.95 w-% in mixture of water and 3.17 W-% ethanol): 120 ± 2 ppm
Concentration of methanol in gas phase ([3]; methanol in liquid 1.59 w-% in mixture of water and 3.17 W-% ethanol): 201 ± 3 ppm
Concentration of methanol in gas phase ([3]; methanol in liquid 3.18 w-% in mixture of water and 3.17 W-% ethanol): 402 ± 2 ppm
Concentration of methanol in gas phase ([3]; methanol in liquid 6.36 w-% in mixture of water and 3.17 W-% ethanol): 806 ± 7 ppm
Concentration of methanol in gas phase ([1]; methanol in liquid 0.101 w-%, water): 13 ± 0.2 ppm
Concentration of methanol in gas phase ([1]; methanol in liquid 0.102 w-% in mixture of water and 3.17 W-% ethanol): 14.2 ± 0.4 ppm
Concentration of methanol in gas phase ([1]; methanol in liquid 0.159 w-% in mixture of water and 3.17 W-% ethanol): 22.2 ± 0.4 ppm
Concentration of methanol in gas phase ([1]; methanol in liquid 0.203 w-%, water): 26.9 ± 0.1 ppm
Concentration of methanol in gas phase ([1]; methanol in liquid 0.301 w-%, water): 41.6 ± 0.3 ppm
Concentration of methanol in gas phase ([1]; methanol in liquid 0.317 w-% in mixture of water and 3.17 W-% ethanol): 43.4 ± 0.4 ppm
Concentration of methanol in gas phase ([1]; methanol in liquid 0.501 w-%, water): 61 ± 1 ppm
Concentration of methanol in gas phase ([1]; methanol in liquid 1.59 w-%, water): 204 ± 2 ppm
Concentration of methanol in gas phase ([1]; methanol in liquid 3.17 w-%, water): 402 ± 2 ppm
Concentration of methanol in gas phase ([1]; methanol in liquid 6.34 w-%, water): 805 ± 4 ppm
Concentration of methanol in gas phase ([1]; methanol in liquid 9.51 w-%, water): 1207 ± 5 ppm
Concentration of methanol in gas phase ([1]; methanol in liquid 15.9 w-% in mixture of water and 3.17 W-% ethanol): 2006 ± 3 ppm
Concentration of methanol in gas phase ([1]; methanol in liquid 15.9 w-%, water): 2031 ± 14 ppm
Concentration of methanol in gas phase ([1]; methanol in liquid 31.7 w-%, water): 4067 ± 28 ppm
